Experimental data published in patent US20250333376A1, “CRYSTAL FORMS OF BMX AND PREPARATION THEREOF” (Novelwise Pharmaceutical Corporation, priority 2024, published 2025).
Values after ≈ are worked out from the molar mass of the structure shown. “Also recorded” adds a separate entry of the source. Like-named read-outs stand apart in the source and are kept apart here. Values belong to the molecule of their own block, whether it stands above or below them.

Tests used:
Assay type in all cases: physicochemical
[1] = Solubility of Crystal Form A in process solvents and aqueous buffer systems; conditions: for solubility at 24 h: thermodynamic from solid
Procedure: The solubility of this form was tested in the process solvents (Ethyl acetate and hexane) and in aqueous buffer systems. 100 mg of Crystal Form A of Compound BMX was weighed into 4 mL vials with 2 mL of the specified solvent/aqueous buffer system being added. These solutions were shaken at room temperature for 24 hours. The pH was monitored in time and remained in the correct range. Samples were filtered and diluted (5× in ACN/MeOH 1/1) and measured using H PLC. The concentration of the samples is determined using a calibration line.

[2] = Photo stress stability, amorphous form versus Crystal Form A; conditions: for Degradation: 48 hours of exposure to photo-stress conditions (cool white fluorescent lamp and UV fluorescent lamp 320-400 nm)
Description: The amorphous Form and the Crystal Form A of Compound BMX samples were exposed at a cool white fluorescent lamp that has an output similar to that specified by ISO 10977 and UV fluorescent lamp with a spectral distribution from 320 nm to 400 nm for evaluating the photo stress stability.

[3] = Hygroscopicity determination by DVS
Procedure: The hygroscopicity of the Crystal Form A of Compound BMX was determined using Surface Measurement Systems Ltd. DVS resolution equipment. The sample was loaded into balance pan, typically 10-30 mg, and equilibrated at 0% relative humidity (RH). When the material has dried, the RH is increased with 10% per step for 1 hour per increment, ending at 95% RH. After completion of the sorption cycle, the sample was dried using the same method. […] The software used for data collection is DVS Control Software for 21 CFR Part 11 v1.0.3.0. Data analysis is performed using DVS Standard Analysis Suite v7.2.0.9 (Standard).

[4] = Competitive slurry experiments to determine the most stable polymorphic form; conditions: competitive slurry in 2-propanol, XRPD
Procedure: No material of Crystal Form C, D, or E was available since these could not be reproduced. The competitive slurry was performed using Crystal Forms B, […], F and poorly crystalline material, with 10 mg of each form being added in two 1 mL vials.
The competitive slurry experiment in 2-methyl tetrahydrofuran gave a clear solution and the experiment in 2-propanol gave a white slurry.

[5] = Stability test of Form B slurried in water
[6] = Solubility of amorphous material of Compound BMX by the shake flask method; conditions: for solubility at 24 h / solubility at 15 min: organic solvent or mixture, thermodynamic from solid, shake flask
Procedure: The solubility of amorphous material of Compound BMX was determined by the shake flask method. The amorphous material was obtained by dissolving 500 mg of the Crystal From A of Compound BMX in 10 mL dichloromethane, this solution was evaporated to dryness in vacuum conditions (0 mbar, RT).
The solvents for the solubility determination were selected based on the Principal Component Analysis (PCA) of properties, which means that some pharmaceutically unattractive solvents were included to create a better understanding of the parameter space. The Principal Component Analysis focusses on polarity, polarizability and hydrogen bonding.
Subsequently, the samples were filtered and diluted for LC analysis and the concentration is determined using a calibration line.

[7] = Stability of polymorphic forms stored at 40° C./75% RH for 4 days
Procedure: Both Crystal Form A and Crystal Form D were found in different solvent combinations using different crystallization techniques. […] Crystal Form C was only observed once, being found in a slurry experiment at 50° C. in DMSO/Ethanol (60/40-%). […] All plates were stored at 40° C./75% RH for 4 days in order to determine the stability of the polymorphic forms.

[8] = solvent Methyl-tert-butyl ether

Solubility ([1]; Ethyl acetate, room temperature, 24 hours): 20780 µg/mL (≈ 52.3 mM)
solubility at 24 h ([1]; FaSSIF, pH 6.5, fassif, pH 6.5, room temperature, 24 hours): 10 µg/mL (≈ 0.0252 mM)
solubility at 24 h ([1]; FeSSIF, pH 5.8, fessif, pH 5.8, room temperature, 24 hours): 180 µg/mL (≈ 0.453 mM)
Solubility (in words) ([1]; Hexane, water, FaSSGF, FASSIF and phosphate buffer pH 7.4): insoluble
solubility at 24 h ([1]; ethyl acetate, organic solvent or mixture, room temperature, 24 hours): 20800 µg/mL (≈ 52.3 mM)
Degradation [2]: 10%
Mass uptake (DVS) ([3]; 0% to 95% RH, 10% per step, 1 hour per increment): 0.035 wt %
Stability under humid conditions (XRPD, DSC/TGA, microscopy pre and post DVS) ([3]; after DVS up to 95% RH): stable under these humid conditions
Most stable polymorphic form [4]: most stable form
Most stable polymorphic form ([4]; listed as Cystal Form A): thermodynamically most stable form
SMILES: COc1ccc(COc2c(/C=C/C(=O)NO)ccc(OC)c2CC=C(C)C)cc1 [Crystal Form A]
Changes in polymorphic form after solubility test (XRPD) ([1]; all solvents/buffers of Table 6, 24 hours at room temperature): No changes in polymorphic form were observed
Stability under stress conditions compared with the amorphous form ([2]; photo-stress, 48 hours): significantly more stable than the amorphous form
Hygroscopicity (in words) ([3]; DVS): non-hygroscopic; also recorded: not hygroscopic

Changes in XRPD on slurrying in water ([5]; water, room temperature, 4 hours, 24 hours, 4 days and 7 days): No changes were observed in the XRPD
SMILES: COc1ccc(COc2c(/C=C/C(=O)NO)ccc(OC)c2CC=C(C)C)cc1 [Crystal Form B]
Conversion on seeding with Crystal Form A ([5]; seeds of Crystal Form A, slurrying at 50° C.): could not be converted into Crystal Form A
Stability in water (in words) ([5]; slurry in water): very stable in water; also recorded: remained stable in water

solubility at 24 h ([6]; solvent 2-Ethly-1-butanol): 8800 µg/mL (≈ 22.1 mM)
solubility at 15 min ([6]; solvent Acetonitrile): 10000 to 33000 µg/mL (≈ 25.2 to 83 mM)
solubility at 24 h ([6]; solvent Anisole): 9700 µg/mL (≈ 24.4 mM)
solubility at 15 min ([6]; solvent Dimethyl sulfoxide): 31000 to 94000 µg/mL (≈ 78 to 236 mM)
solubility at 15 min ([6]; solvent Ethyl butyl ketone): 10000 to 33000 µg/mL (≈ 25.2 to 83 mM)
solubility at 24 h ([6]; solvent Ethyl sulfoxide): 6900 µg/mL (≈ 17.4 mM)
solubility at 15 min ([6]; solvent Methanol): 31000 to 94000 µg/mL (≈ 78 to 236 mM)
solubility at 24 h [6, 8]: 3300 µg/mL (≈ 8.3 mM)
USP classification ([6]; solvent 2-Ethly-1-butanol): Slightly soluble
USP classification ([6]; solvent Acetonitrile): Sparingly soluble
USP classification ([6]; solvent Anisole): Slightly soluble
USP classification ([6]; solvent Dimethyl sulfoxide): Soluble
USP classification ([6]; solvent Ethyl butyl ketone): Sparingly soluble
USP classification ([6]; solvent Ethyl sulfoxide): Slightly soluble
USP classification ([6]; solvent Methanol): Soluble
USP classification [6, 8]: Slightly soluble
USP classification ([6]; solvent Water): Practically insoluble
USP classification ([6]; solvent n-Heptane): Practically insoluble
Degradation ([2]; listed as amorphous form): 20%
SMILES: COc1ccc(COc2c(/C=C/C(=O)NO)ccc(OC)c2CC=C(C)C)cc1 [amorphous material of Compound BMX]
Stability of the polymorphic form ([7]; listed as amorphous solid): converted into a new polymorphic form: Crystal Form E

SMILES: COc1ccc(COc2c(/C=C/C(=O)NO)ccc(OC)c2CC=C(C)C)cc1 [Crystal Form C]
Stability of the polymorphic form [7]: unstable and converted into Crystal Form D soon
Stability of the polymorphic form ([7]; listed as Cystal Form C): not a stable form and converted into polymorphic Crystal Form D
